From ChEMBL document CHEMBL1909046, “DrugMatrix in vitro pharmacology data”

Experiments:
[1] = DRUGMATRIX: Calcium Channel Type L, Dihydropyridine radioligand binding (ligand: [3H] Nitrendipine); format: cell membranes, Rattus norvegicus, Wistar, Cerebral cortex, Membrane; conditions: Not Active = under 50% inhibition at 10 µM
Vasopressin V1a receptor = Vasopressin V1a receptor (Homo sapiens, UniProt P37288); format: cell membranes, Membrane; conditions: hek293; also: in other assays of this panel Not Active means under 50% inhibition at 10 µM
[2] = biological target: T1, Neuropeptide Y receptor type 2 (Homo sapiens, UniProt P49146); format: cell membranes, Membrane; conditions: kan-ts; also: in other assays of this panel Not Active means under 50% inhibition at 10 µM
T1 sequence (P49146 whole entry): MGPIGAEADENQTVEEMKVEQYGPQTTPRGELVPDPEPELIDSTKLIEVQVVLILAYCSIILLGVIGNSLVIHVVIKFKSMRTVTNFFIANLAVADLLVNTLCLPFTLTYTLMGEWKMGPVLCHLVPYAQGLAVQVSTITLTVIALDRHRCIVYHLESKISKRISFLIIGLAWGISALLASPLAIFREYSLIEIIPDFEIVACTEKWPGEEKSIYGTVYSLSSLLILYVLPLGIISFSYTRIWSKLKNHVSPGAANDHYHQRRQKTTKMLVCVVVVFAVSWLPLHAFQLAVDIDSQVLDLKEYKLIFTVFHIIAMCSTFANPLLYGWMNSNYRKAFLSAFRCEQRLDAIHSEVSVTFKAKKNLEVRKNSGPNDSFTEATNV

Progesterone receptor = biological target: T2, Progesterone receptor (Bos taurus, UniProt Q690N0); assay: DRUGMATRIX: Progesterone radioligand binding (ligand: [3H] R-5020); format: tissue-based, Uterus; conditions: Not Active = under 50% inhibition at 10 µM
T2 sequence (Q690N0 whole entry): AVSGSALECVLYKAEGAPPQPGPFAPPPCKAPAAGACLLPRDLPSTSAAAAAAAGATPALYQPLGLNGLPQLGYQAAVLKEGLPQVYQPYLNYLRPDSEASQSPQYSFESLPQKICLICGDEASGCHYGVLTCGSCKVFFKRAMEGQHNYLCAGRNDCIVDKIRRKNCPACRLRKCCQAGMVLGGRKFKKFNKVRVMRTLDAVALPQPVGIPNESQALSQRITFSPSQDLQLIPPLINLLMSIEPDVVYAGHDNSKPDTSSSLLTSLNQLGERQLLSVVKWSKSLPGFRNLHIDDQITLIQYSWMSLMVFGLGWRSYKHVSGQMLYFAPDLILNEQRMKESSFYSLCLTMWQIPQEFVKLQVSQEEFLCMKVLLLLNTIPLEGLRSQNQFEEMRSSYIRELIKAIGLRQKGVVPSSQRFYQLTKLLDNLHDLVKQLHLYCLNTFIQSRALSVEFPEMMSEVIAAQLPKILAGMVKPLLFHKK

[3] = biological target: Protein kinase C alpha type (Homo sapiens, UniProt P17252); format: cell-based; conditions: sf9;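 also: inhibition of PKCalpha kinase activity measured in an enzyme assay with histone as the phosphorylation substrate; in other assays of this panel Not Active means under 50% inhibition at 10 µM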
[4] = DRUGMATRIX: Purinergic P2X radioligand binding (ligand: [3H] alpha, beta-Methylene-ATP); format: cell membranes, Oryctolagus cuniculus, New Zealand albino, Urinary bladder, Membrane; conditions: Not Active = under 50% inhibition at 10 µM
Estrogen receptor beta = Estrogen receptor beta (Homo sapiens, UniProt Q92731); conditions: sf9; also: in other assays of this panel Not Active means under 50% inhibition at 10 µM
Chain of Estrogen receptor beta (Q92731 whole entry): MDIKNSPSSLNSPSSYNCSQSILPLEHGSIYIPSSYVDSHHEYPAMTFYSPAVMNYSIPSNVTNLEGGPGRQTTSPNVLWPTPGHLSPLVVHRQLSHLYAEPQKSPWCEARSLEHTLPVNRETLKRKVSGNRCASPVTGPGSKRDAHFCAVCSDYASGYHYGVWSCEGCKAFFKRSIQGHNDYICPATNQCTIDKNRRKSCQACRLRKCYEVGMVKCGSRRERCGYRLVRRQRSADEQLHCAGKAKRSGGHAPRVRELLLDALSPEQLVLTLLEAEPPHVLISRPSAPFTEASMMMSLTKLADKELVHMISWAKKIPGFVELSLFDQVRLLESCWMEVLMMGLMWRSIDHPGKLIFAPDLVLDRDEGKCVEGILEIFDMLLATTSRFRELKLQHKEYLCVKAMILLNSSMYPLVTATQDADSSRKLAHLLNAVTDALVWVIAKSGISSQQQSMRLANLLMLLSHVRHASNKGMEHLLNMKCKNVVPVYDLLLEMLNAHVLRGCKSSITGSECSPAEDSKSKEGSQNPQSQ

Chain of Vasopressin V1a receptor (P37288 whole entry): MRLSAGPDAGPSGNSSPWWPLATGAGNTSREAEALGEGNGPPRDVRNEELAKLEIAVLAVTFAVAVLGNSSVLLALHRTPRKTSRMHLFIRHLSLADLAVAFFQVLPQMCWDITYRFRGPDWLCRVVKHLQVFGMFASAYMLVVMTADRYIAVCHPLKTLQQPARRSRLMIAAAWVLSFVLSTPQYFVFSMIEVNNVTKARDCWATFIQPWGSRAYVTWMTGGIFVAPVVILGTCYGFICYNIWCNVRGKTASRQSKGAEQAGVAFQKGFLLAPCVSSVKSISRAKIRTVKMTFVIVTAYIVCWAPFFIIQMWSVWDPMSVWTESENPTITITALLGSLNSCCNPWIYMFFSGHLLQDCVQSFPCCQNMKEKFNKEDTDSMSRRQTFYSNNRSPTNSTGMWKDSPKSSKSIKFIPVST

CCn1cc(C(=O)O)c(=O)c2cc(F)c(N3CCN(C)CC3)cc21 [PEFLOXACIN]
Not Active: IC50 [1] | Ki [1] | IC50 (Vasopressin V1a receptor) | IC50 [2] | IC50 (Progesterone receptor) | IC50 [3] | IC50 [4] | Ki [4] | IC50 (Estrogen receptor beta)

NC(=O)c1cnccn1 [PYRAZINAMIDE]
Not Active: IC50 [1] | Ki [1] | IC50 (Vasopressin V1a receptor) | IC50 [2] | IC50 (Progesterone receptor) | IC50 [3] | IC50 [4] | Ki [4] | IC50 (Estrogen receptor beta)

OC(CCN1CCCCC1)(c1ccccc1)C1CCCCC1 (stereo unspecified) [TRIHEXYPHENIDYL]
Not Active: IC50 [1] | Ki [1] | IC50 (Vasopressin V1a receptor) | IC50 [2] | IC50 (Progesterone receptor) | IC50 [3] | IC50 [4] | Ki [4] | IC50 (Estrogen receptor beta)

CADMIUM DICHLORIDE
Not Active: IC50 [1] | Ki [1] | IC50 (Vasopressin V1a receptor) | Ki (Vasopressin V1a receptor) | IC50 [2] | Ki [2] | IC50 (Progesterone receptor) | Ki (Progesterone receptor) | IC50 [3] | Ki [3] | IC50 [4] | Ki [4] | IC50 (Estrogen receptor beta) | Ki (Estrogen receptor beta)
